Assay results from US20210330603A1 (priority 2020, published 2021).

How the values were obtained:
EHEC [1] = assay: Western blots of secreted translocon components EspA and EspB, EHEC (LEE-encoded T3SS activity); assay type: cell-based, Escherichia coli O157:H7
EHEC [2] = assay: Growth curves of EHEC in the presence of AA and AG (FIG. 22); assay type: cell-based, Escherichia coli; details: concentrations of 80 and 160 μM
From the text: (§1) FIG. 22. Growth curves for Staphylococcus aureus (left side graphs) and EHEC (right side graphs) in the presence of AA (top graphs) and AG (bottom graphs).
(§2) Some lipids are antimicrobial with respect to certain bacteria.

EHEC [3] = assay type: cell-based, Escherichia coli O157:H7
EHEC [4] = assay type: cell-based, Escherichia coli O157:H7; remark: listed apart in the source
C. rodentium [5] = assay type: cell-based, Citrobacter rodentium
C. rodentium [6] = assay: Western blots of secreted translocon components EspA and EspB, C. rodentium; assay type: cell-based, Citrobacter rodentium; details: physiological concentrations of 2-AG, late-log phase
EHEC [7] = assay: Western blots of lysate-associated EspA, EspB and Tir in EHEC; assay type: cell-based, Escherichia coli O157:H7; details: late-log phase
EHEC [8] = assay: Growth kinetics of EHEC under LEE-inducing conditions (FIG. 11); assay type: cell-based, Escherichia coli O157:H7; details: 10 μM 2-AG, microaerobic, DMEM-low glucose
C. rodentium [9] = assay: Growth kinetics of C. rodentium under LEE-inducing conditions (FIG. 11); assay type: cell-based, Citrobacter rodentium; details: 10 μM 2-AG, microaerobic, DMEM-low glucose
EHEC [10] = assay: Fluorescent actin staining (FAS) assay, EHEC pedestal formation on HeLa cells; assay type: cell-based, Escherichia coli O157:H7; details: EHEC treated with 10 μM 2-AG prior to infection of HeLa cells
S. Typhimurium [11] = assay: Targeted qPCR of SPI-1 genes in S. Typhimurium; assay type: cell-based, Salmonella enterica serovar Typhimurium; details: 10 μM 2-AG, SPI-1-inducing conditions, late-log phase
S. Typhimurium [12] = assay: SipA secretion by S. Typhimurium under SPI-1-inducing conditions; assay type: cell-based, Salmonella enterica serovar Typhimurium; details: 10 μM 2-AG
S. Typhimurium [13] = assay: Epithelial invasion assay, S. Typhimurium on HeLa cells; assay type: cell-based, Salmonella enterica serovar Typhimurium; details: ST treated with 10 μM 2-AG prior to infection of HeLa cells
S. Typhimurium [14] = assay: Growth curves of S. Typhimurium under SPI-1-inducing conditions; assay type: cell-based, Salmonella enterica serovar Typhimurium; details: 10 μM 2-AG
S. Typhimurium [15] = assay: Transcript levels of SPI-2 genes in S. Typhimurium; assay type: cell-based, Salmonella enterica serovar Typhimurium; details: 10 μM 2-AG, SPI-2-inducing conditions, 3 hours
S. Typhimurium [16] = assay: Macrophage infection, intramacrophagic survival of S. Typhimurium in J774.1 murine macrophages; assay type: cell-based, Salmonella enterica serovar Typhimurium
QseC = molecular target: T1, QseC (Escherichia coli O157:H7, UniProt Q8X524); assay: Autophosphorylation of QseC in liposomes; assay type: biochemical
T1 construct: Myc (C); His (C); made in house; host or cells: E. coli BL21(DE3) (printed 'B121 DE3'), arabinose induction, Ni-NTA purification

CpxA = molecular target: T2, CpxA (Escherichia coli O157:H7, UniProt P0AE84); assay: Autophosphorylation of CpxA in liposomes; assay type: biochemical; details: 10 μM 2-AG, 120 seconds or 10 minutes
T2 construct: made in house; host or cells: E. coli BL21(DE3) (printed 'B121 DE3'), IPTG induction, Ni-NTA purification
T2 sequence (P0AE84 1-457): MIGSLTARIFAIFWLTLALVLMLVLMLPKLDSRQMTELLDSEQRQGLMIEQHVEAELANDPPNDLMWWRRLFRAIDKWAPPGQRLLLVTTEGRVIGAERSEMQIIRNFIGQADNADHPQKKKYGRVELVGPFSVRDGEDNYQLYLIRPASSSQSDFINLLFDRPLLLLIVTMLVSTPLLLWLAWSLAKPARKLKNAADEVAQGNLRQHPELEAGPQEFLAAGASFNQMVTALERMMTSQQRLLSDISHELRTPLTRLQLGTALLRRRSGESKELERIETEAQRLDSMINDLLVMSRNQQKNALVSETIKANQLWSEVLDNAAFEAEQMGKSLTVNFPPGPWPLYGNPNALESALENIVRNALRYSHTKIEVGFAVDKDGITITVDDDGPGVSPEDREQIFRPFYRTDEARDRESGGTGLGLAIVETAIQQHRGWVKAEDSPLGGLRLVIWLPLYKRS

FusK = assay: qRT-PCR of LEE-encoded tir in EHEC ΔfusK; assay type: cell-based, Escherichia coli O157:H7; details: 20 μM 2-AG, aerobic
Staphylococcus aureus = assay: Growth curves of Staphylococcus aureus in the presence of AA and AG (FIG. 22); assay type: cell-based
From the text: as §1, §2

EHEC strain 86-24 = assay: qPCR of espA in EHEC grown in LG-DMEM with CBD; assay type: cell-based, Escherichia coli O157:H7
EHEC 86-24 [17] = assay: EspA immunoblot of EHEC grown with CBD; assay type: cell-based, Escherichia coli O157:H7; details: 50 μM CBD
EHEC 86-24 [18] = assay: Growth rate and growth yield of EHEC with CBD; assay type: cell-based, Escherichia coli O157:H7
Citrobacter rodentium = assay: Cannabidiol treatment of C. rodentium infected mice (fecal colony counts); assay type: in vivo, mouse; details: single dose one-day post-infection
C. rodentium [19] = assay: Pharmacological inhibition of MgI in C. rodentium infected mice (FIG. 23); assay type: in vivo, mouse
[20] = physiological concentrations of 2-AG, late-log phase

T1 sequence (Q8X524 whole entry): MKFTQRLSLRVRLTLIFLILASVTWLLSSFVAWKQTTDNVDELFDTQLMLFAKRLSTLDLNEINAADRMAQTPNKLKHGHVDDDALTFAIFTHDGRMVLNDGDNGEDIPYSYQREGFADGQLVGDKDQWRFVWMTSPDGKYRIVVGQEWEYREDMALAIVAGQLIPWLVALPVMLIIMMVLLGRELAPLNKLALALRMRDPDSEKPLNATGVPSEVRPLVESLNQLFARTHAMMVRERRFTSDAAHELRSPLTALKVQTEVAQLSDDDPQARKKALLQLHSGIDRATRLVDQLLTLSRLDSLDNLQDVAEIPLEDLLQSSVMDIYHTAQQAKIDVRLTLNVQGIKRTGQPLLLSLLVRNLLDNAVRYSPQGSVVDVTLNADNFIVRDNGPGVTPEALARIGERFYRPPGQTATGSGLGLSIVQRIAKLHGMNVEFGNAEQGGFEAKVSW

SMILES: CCCCC/C=C\C/C=C\C/C=C\C/C=C\CCCC(=O)OC[C@@H](O)CO [1-AG, reference compound]
- LEE-encoded T3SS activity (EspA and EspB secretion) (EHEC [1]; 1-AG in contrast to 2-AG, late-log phase): does not attenuate LEE-encoded T3SS activity

SMILES: CCCCC/C=C\C/C=C\C/C=C\C/C=C\CCCC(=O)OC(CO)CO [2-AG, 2-arachidonoyl-glycerol]
- growth of EHEC (EHEC [2]): does not inhibit growth
- differentially expressed KEGG pathways (RNAseq) (EHEC [3]): significantly altered the expression four KEGG pathways
- expression of LEE-encoded genes (RNAseq) (EHEC [3]): significant downregulation of numerous LEE-encoded genes
- non-LEE encoded genes differentially expressed (RNAseq) (EHEC [3]): few non-LEE encoded genes were differentially expressed
- LEE transcription, targeted qPCR of LEE-encoded genes spanning its five operons (EHEC [4]): inhibitory effects of 2-AG on LEE transcription were confirmed
- transcription of Shiga toxin (stx2a) (EHEC [4]): no transcriptional effect
- expression of LEE-encoded genes in C. rodentium (C. rodentium [5]): decreased expression of LEE-encoded genes
- LEE activity in isogenic fadL mutant (EHEC [1]; EHEC ΔfadL, 10 μM 2-AG): no longer inhibited
- EspA secretion, EHEC (EHEC [1]; [20]): significantly reduced
- EspB secretion, EHEC (EHEC [1]; [20]): significantly reduced
- LEE functional activity in the qseC mutant in EHEC (EHEC [1]; qseC isogenic mutant, 10 μM 2-AG): not affected
- EspA secretion, C. rodentium (C. rodentium [6]): significantly reduced
- EspB secretion, C. rodentium (C. rodentium [6]): significantly reduced
- protein expression of EspA in EHEC lysates (EHEC [7]): significantly decreased
- protein expression of EspB in EHEC lysates (EHEC [7]): significantly decreased
- protein expression of Tir in EHEC lysates (EHEC [7]): significantly decreased
- growth of EHEC (EHEC [8]): did not correspond with altered growth
- growth of C. rodentium (C. rodentium [9]): did not correspond with altered growth
- pedestal formation on epithelial cells (A/E lesion formation) (EHEC [10]): decreased pedestal formation
- expression of hilD (S. Typhimurium [11]): inhibits expression
- expression of sipA (S. Typhimurium [11]): inhibits expression
- expression of sopB (S. Typhimurium [11]): inhibits expression
- secretion of SipA (S. Typhimurium [12]): decreased secretion of SipA
- epithelial invasiveness (S. Typhimurium [13]): attenuated epithelial invasiveness
- S. Typhimurium growth kinetics (S. Typhimurium [14]): did not alter
- expression of ssaV (S. Typhimurium [15]): decreased expression
- expression of sseF (S. Typhimurium [15]): decreased expression
- survival within macrophages (S. Typhimurium [16]): decreased survival within macrophages
- Epi-mediated activation of QseC (QseC; 6 μM 2-AG, 50 μM epinephrine, 30 minutes): inhibited Epi-mediated activation of QseC
- QseC activation (autophosphorylation) (QseC; QseC reconstituted into liposomes): significantly diminished
- activity of CpxA (autophosphorylation) (CpxA): did not inhibit
- activity of FusK (FusK): did not inhibit

SMILES: Cc1c(C(=O)NN2CCCCC2)nn(-c2ccc(Cl)cc2Cl)c1-c1ccc(I)cc1 [AM251, reference compound]
- effect on 2-AG-mediated inhibition of QseC activity (QseC; 6 μM 2-AG and AM251, 30 minutes, liposome system): prevented 2-AG-mediated inhibition of QseC activity

SMILES: CCCCC/C=C\C/C=C\C/C=C\C/C=C\CCCC(=O)O [Arachidonic acid]
- growth of S. aureus (Staphylococcus aureus): inhibits the growth

SMILES: C=C(C)[C@@H]1CCC(C)=C[C@H]1c1c(O)cc(CCCCC)cc1O [CBD, cannabidiol]
- decrease in expression of espA compared to the vehicle (EHEC strain 86-24; wt EHEC 86-24, 50 μM CBD): 20.6 fold
- reduction in expression of espA between the control and CBD (EHEC strain 86-24; ΔqseC deletion strain, 50 μM CBD): 17.5 fold
- expression of EspA protein (immunoblot) (EHEC 86-24 [17]): reduced expression of EspA
- growth rate and growth yield (EHEC 86-24 [18]): neither the growth rate nor the growth yield for the wt and ΔqseC deletion strains were significantly altered
- ability of Citrobacter rodentium to colonize the intestines of mice (Citrobacter rodentium): inhibited the ability

SMILES: O=C(Oc1ccc([N+](=O)[O-])cc1)N1CCC(C(O)(c2ccc3c(c2)OCO3)c2ccc3c(c2)OCO3)CC1 [JZL184]
- colonization of cecum tissues by C. rodentium (C. rodentium [19]): decreases colonization of cecum tissues

SMILES: CCCCC/C=C\C/C=C\C/C=C\C/C=C\CCCC(=O)NCCO [anandamide, reference compound]
- LEE activity (EspA and EspB secretion) (EHEC [1]; anandamide 100 or 200 nM, late-log phase): does not alter LEE activity
